# Test results reported in ChEMBL document CHEMBL5291721, “A preclinical secondary pharmacology resource illuminates target-adverse drug reaction associations of marketed drugs” (Nat Commun, 2023).
# Tests used:
# [1] = target: T1, Gastrin/cholecystokinin type B receptor (Homo sapiens, UniProt P32239)
# T1 sequence (P32239 whole entry): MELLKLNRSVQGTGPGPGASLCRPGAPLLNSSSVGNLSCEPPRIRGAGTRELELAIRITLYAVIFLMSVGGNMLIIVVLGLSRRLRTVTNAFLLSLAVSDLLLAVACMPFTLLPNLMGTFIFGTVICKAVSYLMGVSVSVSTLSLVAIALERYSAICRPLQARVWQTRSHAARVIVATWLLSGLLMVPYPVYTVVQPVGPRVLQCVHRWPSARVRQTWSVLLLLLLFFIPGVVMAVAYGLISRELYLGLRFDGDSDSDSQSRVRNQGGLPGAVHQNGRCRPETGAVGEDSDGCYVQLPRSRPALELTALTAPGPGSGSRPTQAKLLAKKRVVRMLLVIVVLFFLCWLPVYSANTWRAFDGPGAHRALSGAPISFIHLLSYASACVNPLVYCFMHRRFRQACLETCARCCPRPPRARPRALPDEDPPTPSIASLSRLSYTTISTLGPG
# [2] = target: T2, Muscarinic acetylcholine receptor M2 (Homo sapiens, UniProt P08172); assay type: functional, cell-based
# T2 sequence (P08172 whole entry): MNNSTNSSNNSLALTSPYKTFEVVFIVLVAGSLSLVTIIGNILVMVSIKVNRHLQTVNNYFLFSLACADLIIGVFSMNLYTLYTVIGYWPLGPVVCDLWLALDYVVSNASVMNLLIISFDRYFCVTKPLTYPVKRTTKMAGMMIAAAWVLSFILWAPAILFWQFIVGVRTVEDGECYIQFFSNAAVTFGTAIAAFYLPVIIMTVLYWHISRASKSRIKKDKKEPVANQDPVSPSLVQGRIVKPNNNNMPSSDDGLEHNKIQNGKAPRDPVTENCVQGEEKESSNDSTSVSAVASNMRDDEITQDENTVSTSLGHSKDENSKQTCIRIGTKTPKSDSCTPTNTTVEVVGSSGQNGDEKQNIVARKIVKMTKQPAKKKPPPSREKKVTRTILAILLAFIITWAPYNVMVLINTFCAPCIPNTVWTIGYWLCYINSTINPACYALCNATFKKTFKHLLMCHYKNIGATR
# [3] = target: Sodium-dependent noradrenaline transporter (Homo sapiens, UniProt P23975)
# Chain of Sodium-dependent noradrenaline transporter (P23975 whole entry): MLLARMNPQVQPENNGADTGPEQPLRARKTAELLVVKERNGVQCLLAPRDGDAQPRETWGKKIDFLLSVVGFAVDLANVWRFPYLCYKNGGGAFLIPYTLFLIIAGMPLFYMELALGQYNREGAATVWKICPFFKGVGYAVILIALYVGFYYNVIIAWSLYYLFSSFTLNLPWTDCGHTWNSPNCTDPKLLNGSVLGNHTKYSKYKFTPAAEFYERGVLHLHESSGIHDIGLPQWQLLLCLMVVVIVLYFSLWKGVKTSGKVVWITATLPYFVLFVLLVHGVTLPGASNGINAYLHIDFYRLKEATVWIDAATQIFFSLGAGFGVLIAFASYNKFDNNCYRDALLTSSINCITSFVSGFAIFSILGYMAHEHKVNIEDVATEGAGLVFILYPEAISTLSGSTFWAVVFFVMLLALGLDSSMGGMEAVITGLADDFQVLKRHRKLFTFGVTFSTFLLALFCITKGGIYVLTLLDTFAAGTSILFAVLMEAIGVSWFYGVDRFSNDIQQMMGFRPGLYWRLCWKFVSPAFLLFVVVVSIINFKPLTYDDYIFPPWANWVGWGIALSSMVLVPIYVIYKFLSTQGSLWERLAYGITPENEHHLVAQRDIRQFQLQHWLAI
# [4] = target: Sodium-dependent serotonin transporter (Homo sapiens, UniProt P31645)
# Chain of Sodium-dependent serotonin transporter (P31645 whole entry): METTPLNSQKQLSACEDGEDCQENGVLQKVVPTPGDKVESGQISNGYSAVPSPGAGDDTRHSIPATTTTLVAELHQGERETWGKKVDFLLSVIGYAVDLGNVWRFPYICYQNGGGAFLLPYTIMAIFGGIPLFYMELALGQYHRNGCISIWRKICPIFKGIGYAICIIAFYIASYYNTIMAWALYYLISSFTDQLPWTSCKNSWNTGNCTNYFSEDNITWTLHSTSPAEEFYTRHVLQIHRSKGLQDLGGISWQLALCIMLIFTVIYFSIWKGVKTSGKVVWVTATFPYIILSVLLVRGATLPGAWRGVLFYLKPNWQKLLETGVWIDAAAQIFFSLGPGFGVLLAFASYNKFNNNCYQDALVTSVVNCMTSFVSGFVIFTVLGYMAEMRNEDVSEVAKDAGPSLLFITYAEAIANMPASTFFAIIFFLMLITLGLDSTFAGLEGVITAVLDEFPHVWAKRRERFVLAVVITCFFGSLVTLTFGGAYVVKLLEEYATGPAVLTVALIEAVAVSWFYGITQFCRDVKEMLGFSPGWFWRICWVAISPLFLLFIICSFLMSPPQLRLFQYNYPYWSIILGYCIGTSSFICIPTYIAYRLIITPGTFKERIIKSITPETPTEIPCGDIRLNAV
# [5] = target: Mu-type opioid receptor (Homo sapiens, UniProt P35372)
# Chain of Mu-type opioid receptor (P35372 whole entry): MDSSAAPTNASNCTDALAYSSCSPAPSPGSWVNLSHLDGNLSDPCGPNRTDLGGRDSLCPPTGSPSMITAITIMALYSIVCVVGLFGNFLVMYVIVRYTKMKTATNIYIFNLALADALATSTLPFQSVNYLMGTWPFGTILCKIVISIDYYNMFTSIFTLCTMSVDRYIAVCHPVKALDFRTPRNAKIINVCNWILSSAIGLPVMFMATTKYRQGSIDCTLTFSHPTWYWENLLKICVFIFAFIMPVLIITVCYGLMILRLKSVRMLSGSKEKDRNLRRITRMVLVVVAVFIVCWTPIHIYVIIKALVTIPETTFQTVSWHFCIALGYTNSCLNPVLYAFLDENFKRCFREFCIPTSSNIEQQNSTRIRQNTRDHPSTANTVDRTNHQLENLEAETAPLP
# [6] = target: T3, Cannabinoid receptor 1 (Homo sapiens, UniProt P21554); assay type: functional, cell-based
# T3 sequence (P21554 whole entry): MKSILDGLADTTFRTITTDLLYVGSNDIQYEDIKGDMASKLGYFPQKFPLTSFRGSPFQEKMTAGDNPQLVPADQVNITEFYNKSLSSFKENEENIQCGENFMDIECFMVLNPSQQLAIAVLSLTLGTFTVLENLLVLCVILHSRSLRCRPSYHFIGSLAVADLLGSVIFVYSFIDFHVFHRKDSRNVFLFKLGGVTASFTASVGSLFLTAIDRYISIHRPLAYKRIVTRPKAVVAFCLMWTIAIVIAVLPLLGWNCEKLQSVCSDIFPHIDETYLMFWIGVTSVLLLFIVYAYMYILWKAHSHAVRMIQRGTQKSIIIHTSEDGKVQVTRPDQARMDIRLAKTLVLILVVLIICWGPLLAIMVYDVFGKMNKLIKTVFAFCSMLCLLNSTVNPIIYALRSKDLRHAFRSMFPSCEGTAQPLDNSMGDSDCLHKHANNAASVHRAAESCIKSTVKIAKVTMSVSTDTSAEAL
# [7] = target: T3, Cannabinoid receptor 1; assay type: functional, cell-based; remark: listed apart in the source
# [8] = target: T4, Corticotropin-releasing factor receptor 1 (Homo sapiens, UniProt P34998)
# T4 sequence (P34998 whole entry): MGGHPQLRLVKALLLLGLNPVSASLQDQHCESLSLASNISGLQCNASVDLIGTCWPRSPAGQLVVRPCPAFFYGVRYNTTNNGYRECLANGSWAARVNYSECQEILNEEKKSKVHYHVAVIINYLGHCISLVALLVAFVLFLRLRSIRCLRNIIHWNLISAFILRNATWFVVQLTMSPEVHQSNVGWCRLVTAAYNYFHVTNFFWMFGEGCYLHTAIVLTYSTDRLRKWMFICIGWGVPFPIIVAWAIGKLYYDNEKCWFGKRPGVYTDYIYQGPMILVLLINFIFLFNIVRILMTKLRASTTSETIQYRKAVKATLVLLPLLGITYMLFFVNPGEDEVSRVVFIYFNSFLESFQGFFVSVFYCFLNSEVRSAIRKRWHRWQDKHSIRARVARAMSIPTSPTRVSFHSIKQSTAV
# [9] = target: Glucagon receptor (Homo sapiens, UniProt P47871)
# Chain of Glucagon receptor (P47871 whole entry): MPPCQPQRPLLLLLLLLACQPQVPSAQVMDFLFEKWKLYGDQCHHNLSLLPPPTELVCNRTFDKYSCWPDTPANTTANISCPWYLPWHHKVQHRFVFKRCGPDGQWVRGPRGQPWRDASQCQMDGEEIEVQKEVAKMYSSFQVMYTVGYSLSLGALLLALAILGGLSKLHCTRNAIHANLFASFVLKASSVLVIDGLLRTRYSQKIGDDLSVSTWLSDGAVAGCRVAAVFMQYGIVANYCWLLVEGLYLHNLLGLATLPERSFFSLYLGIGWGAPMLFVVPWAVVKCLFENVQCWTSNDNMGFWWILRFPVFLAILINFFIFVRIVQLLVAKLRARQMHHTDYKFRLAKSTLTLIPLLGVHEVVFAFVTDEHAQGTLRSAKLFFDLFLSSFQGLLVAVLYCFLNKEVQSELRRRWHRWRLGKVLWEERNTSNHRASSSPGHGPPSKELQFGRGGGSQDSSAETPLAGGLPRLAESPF
# [10] = target: T5, Gastric inhibitory polypeptide receptor (Homo sapiens, UniProt P48546)
# T5 sequence (P48546 whole entry): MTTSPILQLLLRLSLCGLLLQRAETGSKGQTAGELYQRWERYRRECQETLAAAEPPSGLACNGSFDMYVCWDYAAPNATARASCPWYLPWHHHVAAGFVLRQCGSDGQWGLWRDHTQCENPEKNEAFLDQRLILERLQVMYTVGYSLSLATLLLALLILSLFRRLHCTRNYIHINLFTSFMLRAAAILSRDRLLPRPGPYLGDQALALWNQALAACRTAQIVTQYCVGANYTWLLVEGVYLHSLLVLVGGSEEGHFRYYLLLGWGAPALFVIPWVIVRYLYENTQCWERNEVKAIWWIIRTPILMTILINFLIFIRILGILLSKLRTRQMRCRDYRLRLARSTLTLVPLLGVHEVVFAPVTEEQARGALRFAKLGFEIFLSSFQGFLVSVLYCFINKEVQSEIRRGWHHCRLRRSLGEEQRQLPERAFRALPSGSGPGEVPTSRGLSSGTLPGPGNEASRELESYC
# [11] = target: T6, Neuropeptide Y receptor type 2 (Homo sapiens, UniProt P49146)
# T6 sequence (P49146 whole entry): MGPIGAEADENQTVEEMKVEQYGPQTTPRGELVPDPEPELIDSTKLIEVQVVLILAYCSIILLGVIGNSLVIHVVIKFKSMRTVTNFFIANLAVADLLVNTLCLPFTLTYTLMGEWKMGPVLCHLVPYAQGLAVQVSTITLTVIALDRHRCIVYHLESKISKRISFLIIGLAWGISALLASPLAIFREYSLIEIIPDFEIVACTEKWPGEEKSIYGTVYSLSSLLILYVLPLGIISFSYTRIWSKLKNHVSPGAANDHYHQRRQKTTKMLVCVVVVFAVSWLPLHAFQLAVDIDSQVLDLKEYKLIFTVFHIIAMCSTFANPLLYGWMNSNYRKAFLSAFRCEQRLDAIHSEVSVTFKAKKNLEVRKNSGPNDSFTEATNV
# [12] = target: D(1A) dopamine receptor (Homo sapiens, UniProt P21728)
# Chain of D(1A) dopamine receptor (P21728 whole entry): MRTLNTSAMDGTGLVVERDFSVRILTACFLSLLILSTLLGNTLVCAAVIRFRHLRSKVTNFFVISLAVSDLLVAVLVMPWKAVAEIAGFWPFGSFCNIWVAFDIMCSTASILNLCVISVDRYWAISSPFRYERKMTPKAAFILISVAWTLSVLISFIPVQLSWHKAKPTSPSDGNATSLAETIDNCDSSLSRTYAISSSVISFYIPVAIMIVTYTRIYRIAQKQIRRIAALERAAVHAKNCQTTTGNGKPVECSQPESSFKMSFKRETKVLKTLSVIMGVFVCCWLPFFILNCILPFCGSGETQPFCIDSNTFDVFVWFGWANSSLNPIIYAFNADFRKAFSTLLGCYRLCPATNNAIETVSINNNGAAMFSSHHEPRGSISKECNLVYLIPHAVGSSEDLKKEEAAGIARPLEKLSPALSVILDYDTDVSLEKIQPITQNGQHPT
# [13] = target: T2, Muscarinic acetylcholine receptor M2
# [14] = target: Beta-2 adrenergic receptor (Homo sapiens, UniProt P07550); assay type: functional, cell-based
# Chain of Beta-2 adrenergic receptor (P07550 whole entry): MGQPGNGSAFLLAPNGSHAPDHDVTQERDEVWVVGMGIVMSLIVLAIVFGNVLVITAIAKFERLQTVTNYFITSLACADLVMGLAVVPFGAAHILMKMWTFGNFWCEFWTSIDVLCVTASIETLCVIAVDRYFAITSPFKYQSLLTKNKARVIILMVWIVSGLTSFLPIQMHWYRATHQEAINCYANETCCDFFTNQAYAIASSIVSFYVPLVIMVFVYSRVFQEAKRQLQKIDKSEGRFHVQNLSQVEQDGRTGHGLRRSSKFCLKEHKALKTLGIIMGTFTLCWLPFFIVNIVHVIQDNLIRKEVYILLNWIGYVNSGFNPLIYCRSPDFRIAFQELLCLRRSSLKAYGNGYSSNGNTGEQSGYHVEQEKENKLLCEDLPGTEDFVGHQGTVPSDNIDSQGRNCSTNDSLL
# [15] = target: 5-hydroxytryptamine receptor 2A (Homo sapiens, UniProt P28223); assay type: functional, cell-based
# Chain of 5-hydroxytryptamine receptor 2A (P28223 whole entry): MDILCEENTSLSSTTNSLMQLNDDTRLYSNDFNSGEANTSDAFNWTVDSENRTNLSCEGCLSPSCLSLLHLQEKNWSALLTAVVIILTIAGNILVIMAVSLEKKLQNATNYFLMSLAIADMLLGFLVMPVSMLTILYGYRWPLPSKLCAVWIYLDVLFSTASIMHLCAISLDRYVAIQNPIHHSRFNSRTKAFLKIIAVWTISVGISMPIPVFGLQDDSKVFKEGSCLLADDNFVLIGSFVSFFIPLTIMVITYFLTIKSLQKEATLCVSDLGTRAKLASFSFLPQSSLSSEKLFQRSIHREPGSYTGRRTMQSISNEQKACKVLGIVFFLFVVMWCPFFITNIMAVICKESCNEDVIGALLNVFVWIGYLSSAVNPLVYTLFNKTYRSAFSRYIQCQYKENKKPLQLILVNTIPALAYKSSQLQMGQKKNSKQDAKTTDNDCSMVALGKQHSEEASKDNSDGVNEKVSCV
# Further: assay procedure not described here.
SMILES,AC50 [1] [µM],AC50 [2] [µM],AC50 [3] [µM],AC50 [4] [µM],AC50 [5] [µM],AC50 [6] [µM],AC50 [7] [µM],AC50 [8] [µM],AC50 [9] [µM],AC50 [10] [µM],AC50 [11] [µM],AC50 [12] [µM],AC50 [13] [µM],AC50 [14] [µM],AC50 [15] [µM]
C[C@]12CC[C@H](O)CC1=CC[C@@H]1[C@@H]2CC[C@]2(C)C(c3cccnc3)=CC[C@@H]12 [ABIRATERONE],> 30,> 10,> 30,> 30,> 30,–,–,–,–,–,–,–,–,–,–
CC(=O)OCC[N+](C)(C)C [ACETYLCHOLINE],> 30,–,> 30,> 30,> 10,> 30,> 30,> 30,> 30,> 30,> 30,> 10,–,–,–
O=C(Nc1nc(-c2cc(Cl)cs2)c(N2CCN(C3CCCCC3)CC2)s1)c1cnc(N2CCC(C(=O)O)CC2)c(Cl)c1 [AVATROMBOPAG],> 10,–,> 10,> 10,> 10,–,–,–,–,–,> 10,> 10,> 10,–,–
CN(C)C(=O)Oc1cc(OC(=O)N(C)C)cc(C(O)CNC(C)(C)C)c1 (configuration not stated) [BAMBUTEROL],> 30,–,> 30,–,–,–,–,–,–,–,–,–,–,–,–
CO[C@@]1(NC(=O)CSCC#N)C(=O)N2C(C(=O)O)=C(CSc3nnnn3C)CS[C@@H]21 [CEFMETAZOLE],–,> 30,–,–,–,> 30,> 30,–,–,–,–,–,–,> 30,–
CO/N=C(\C(=O)N[C@@H]1C(=O)N2C(C(=O)[O-])=C(C[n+]3cccc4c3CCC4)CS[C@H]12)c1csc(N)n1 [CEFPIROME],–,> 30,–,–,–,> 30,> 30,–,–,–,–,–,–,> 30,> 30
NS(=O)(=O)c1cc(C2(O)NC(=O)c3ccccc32)ccc1Cl (configuration not stated) [CHLORTHALIDONE],–,> 10,> 10,–,> 30,–,–,–,–,–,–,–,–,–,–
CC[C@H]1OC(=O)[C@H](C)[C@@H](O[C@H]2C[C@@](C)(OC)[C@@H](O)[C@H](C)O2)[C@H](C)[C@@H](O[C@@H]2O[C@H](C)C[C@H](N(C)C)[C@H]2O)[C@](C)(OC)C[C@@H](C)C(=O)[C@H](C)[C@@H](O)[C@]1(C)O [CLARITHROMYCIN],> 30,> 30,> 30,–,–,> 30,> 30,–,–,–,–,–,–,> 30,–
Oc1c(I)cc(Cl)c2cccnc12 [CLIOQUINOL],–,–,–,–,–,> 30,> 30,–,–,–,–,–,–,> 10,> 30
C[C@@H]1CCC[C@H](C)N1NC(=O)c1ccc(Cl)c(S(N)(=O)=O)c1 [CLOPAMIDE],> 30,> 30,> 30,> 30,–,> 30,> 30,–,–,–,–,–,–,–,> 30
COc1ccc2c(c1)[C@]13CCCC[C@@H]1[C@H](C2)N(C)CC3 [DEXTROMETHORPHAN],> 30,> 10,–,–,2.7,–,–,> 30,> 30,> 30,> 30,> 10,> 10,–,–
O=c1oc2ccccc2c(O)c1Cc1c(O)c2ccccc2oc1=O [DICUMAROL],–,> 10,> 10,–,> 30,–,–,–,–,–,–,–,–,–,–
O=C(O)CSCC(=O)NC1CCSC1=O (configuration not stated) [ERDOSTEINE],> 30,> 30,> 30,> 30,–,> 30,> 30,–,–,–,–,–,–,–,> 30
COc1cccc(N(C)C(=S)Oc2ccc3c(c2)CCCC3)n1 [LIRANAFTATE],> 30,> 30,> 30,> 30,–,> 30,> 30,–,–,–,–,–,–,–,> 30
C#C[C@]1(O)CC[C@H]2[C@@H]3CCc4cc(OC)ccc4[C@H]3CC[C@@]21C [MESTRANOL],–,> 10,10.9,–,> 30,–,–,–,–,–,–,–,–,–,–
N=C(N)c1ccc2cc(OC(=O)c3ccc(N=C(N)N)cc3)ccc2c1 [NAFAMOSTAT],> 30,12,–,8.2,–,> 30,> 30,–,–,–,–,–,–,–,> 30
CNC(=O)Oc1ccc2c(c1)[C@]1(C)CCN(C)[C@@H]1N2C [PHYSOSTIGMINE],> 30,> 30,> 30,–,–,> 30,> 30,–,–,–,–,–,–,> 30,–
O=C(O)c1cc(O)c2c3nc4ccccc4oc-3cc(=O)c2n1 [PIRENOXINE],> 30,> 30,> 30,> 30,–,> 30,> 30,–,–,–,–,–,–,–,> 30
NS(=O)(=O)c1cc(C(=O)O)cc(N2CCCC2)c1Oc1ccccc1 [PIRETANIDE],> 30,> 30,> 30,0.92,–,> 30,> 30,–,–,–,–,–,–,–,> 30
CNCCCC1c2ccccc2C=Cc2ccccc21 [PROTRIPTYLINE],–,1.8,–,–,> 10,–,–,–,–,–,–,–,0.653,–,–
CC(C)=CCOc1ccc(/C=C/C(=O)c2ccc(OCC=C(C)C)cc2OCC(=O)O)cc1 [SOFALCONE],> 30,> 30,26,> 30,–,> 30,11,–,–,–,–,–,–,–,> 30
O=C(CCCN1CCC2(CC1)C(=O)NCN2c1ccccc1)c1ccc(F)cc1 [SPIPERONE],> 30,–,–,0.0086,–,> 30,> 30,–,–,–,–,–,–,> 30,–
CCSc1ccc2c(c1)N(CCCN1CCN(C)CC1)c1ccccc1S2 [THIETHYLPERAZINE],–,> 10,9.6,–,–,–,–,–,–,–,–,–,–,–,> 30
CN(C)c1cc(NC(=O)CNC(C)(C)C)c(O)c2c1C[C@H]1C[C@H]3[C@H](N(C)C)C(O)=C(C(N)=O)C(=O)[C@@]3(O)C(O)=C1C2=O [TIGECYCLINE],> 30,> 30,> 30,> 30,–,–,–,–,–,–,–,–,–,–,> 30
OCCN1CCN(CC/C=C2/c3ccccc3Sc3ccc(Cl)cc32)CC1 [ZUCLOPENTHIXOL],–,> 10,17.4,8.4,> 10,–,–,–,–,–,–,–,–,–,> 10
